These results are taken from ChEMBL document CHEMBL1201862, “PubChem BioAssay data set” (2004).

Structures can show the parent of a compound that is named as a salt.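 These data come from cells grown in 96-well plates and exposed to compound for 48 hours at five concentrations. Here, GI50 denotes the concentration required for 50% inhibition of growth.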 Active and inactive are the calls of the source. Rule as the data show it: active = GI50 up to about 1.1 µM and inactive = higher.

Test systems include U-251; SF-295; HCC 2998; A498; SF-268; NCI-H522; MOLT-4; KM12; MDA-MB-435; CCRF-CEM; CAKI-1; UACC-62; OVCAR-5; NCI-H226; SR; 786-0; UO-31; Malme-3M.
Assay in all cases: growth of human tumour cells (NCI), 48 h

On to `COc1ccc(OC)c(NC2=NCCO2)c1`, for which the GI50 in the test on U-251, in the test with SF-295, in the test with HCC 2998, with A498, with SF-268 and in the test with NCI-H522 was > 100 µM (inactive) throughout. In addition, the GI50 with MOLT-4 is > 100 µM (inactive); in the test with KM12 it was > 100 µM (inactive); in the test on MDA-MB-435, 89.7 µM (inactive); in the test on CCRF-CEM, > 100 µM (inactive); with CAKI-1 it was 15 µM (inactive); in the test on UACC-62 it was > 100 µM (inactive). The GI50 with OVCAR-5 was > 100 µM (inactive); with NCI-H226 it was > 100 µM (inactive); in the test on SR, 66.4 µM (inactive); in the test with 786-0, > 100 µM (inactive); in the test with UO-31, > 100 µM (inactive); in the test with Malme-3M, > 100 µM (inactive).

On to `c1ccc([C@H]2CN3CCSC3=N2)cc1` [LEVAMISOLE HYDROCHLORIDE], for which the GI50 in the test with U-251, with SF-295, with HCC 2998, with A498, in the test with SF-268 and in the test on NCI-H522 was > 100 µM (inactive) in each case. For the same compound, the GI50 with MOLT-4, in the test with KM12, in the test with MDA-MB-435, in the test on CCRF-CEM, with CAKI-1 and with UACC-62 was > 100 µM (inactive) throughout. The GI50 in the test on OVCAR-5, in the test with NCI-H226, with SR, with 786-0, with UO-31 and in the test with Malme-3M was > 100 µM (inactive) in each case.

As for `O=[N+]([O-])c1ccc(CSc2c3ccccc3nc3ccccc23)cc1`, the GI50 in the test on U-251 is 7.28 µM (inactive); in the test with SF-295 it was 21.1 µM (inactive); with HCC 2998 it was 16.1 µM (inactive); in the test on A498, 23.7 µM (inactive); with SF-268 it was 7.64 µM (inactive); in the test with NCI-H522, 1.9 µM (inactive). For the same compound, the GI50 in the test with MOLT-4 was 2.31 µM (inactive); in the test on KM12 it was 4.62 µM (inactive); with MDA-MB-435, 4.94 µM (inactive); in the test with CCRF-CEM it was 2.69 µM (inactive); in the test with CAKI-1, 15.4 µM (inactive); in the test with UACC-62, 14.4 µM (inactive). The GI50 in the test with OVCAR-5 was 15.3 µM (inactive); with NCI-H226 it was 16.7 µM (inactive); with SR it was 3.13 µM (inactive); in the test with 786-0, 1.93 µM (inactive); with UO-31, 5.62 µM (inactive); with Malme-3M it was 2.34 µM (inactive).

Turning to `CC1CCCC(CC(=O)O)(CC(=O)O)C1` (centres undefined), the GI50 with U-251 was > 100 µM (inactive); in the test on HCC 2998 it was > 100 µM (inactive); in the test with A498, > 100 µM (inactive); in the test on SF-268 it was > 100 µM (inactive); in the test with NCI-H522 it was > 100 µM (inactive); in the test on MOLT-4, 48.1 µM (inactive). Moreover, the GI50 in the test on KM12, in the test with MDA-MB-435, with CCRF-CEM, with CAKI-1, in the test with UACC-62 and in the test on OVCAR-5 was > 100 µM (inactive) in each case. Also, the GI50 in the test with NCI-H226, with SR, in the test on 786-0, in the test with UO-31 and with Malme-3M was > 100 µM (inactive) throughout.

With `C=C(Br)CNCC(=C)Br`, the GI50 with U-251, in the test on SF-295, with HCC 2998, with A498, in the test with SF-268 and with NCI-H522 was > 100 µM (inactive) each time. The GI50 is 48.6 µM (inactive) in the test with MOLT-4; > 100 µM (inactive) with KM12; > 100 µM (inactive) in the test on MDA-MB-435; 76.2 µM (inactive) in the test on CCRF-CEM; > 100 µM (inactive) in the test on CAKI-1; > 100 µM (inactive) in the test on UACC-62. For the same compound, the GI50 is > 100 µM (inactive) in the test on OVCAR-5; > 100 µM (inactive) with NCI-H226; > 100 µM (inactive) in the test with SR; > 100 µM (inactive) with 786-0; > 100 µM (inactive) with UO-31; 93.1 µM (inactive) with Malme-3M.

Take `Oc1ccc(Cl)cc1Cc1cc(Cl)cc(Cc2cc(Cl)ccc2O)c1O`: the GI50 with U-251 is 2.7 µM (inactive); with SF-295 it was 2.29 µM (inactive); in the test with HCC 2998 it was 0.836 µM (active); in the test on A498, 1.46 µM (inactive); in the test with SF-268 it was 2.69 µM (inactive); in the test on NCI-H522, 0.766 µM (active). The GI50 was 2.34 µM (inactive) in the test on MOLT-4; 2.64 µM (inactive) in the test on KM12; 2.82 µM (inactive) in the test with MDA-MB-435; 1.47 µM (inactive) in the test on CCRF-CEM; 2.48 µM (inactive) in the test with CAKI-1; 2.15 µM (inactive) in the test on UACC-62. The GI50 in the test with OVCAR-5 is 3.17 µM (inactive); with NCI-H226, 2.74 µM (inactive); in the test with SR, 2.82 µM (inactive); in the test on 786-0 it was 2.81 µM (inactive); in the test with UO-31, 3.01 µM (inactive); in the test on Malme-3M it was 1.95 µM (inactive).

In the case of `CC(C)OP(=O)(OC(C)C)/C(C#N)=C/c1c[nH]c2ccccc12`, the GI50 in the test on U-251 is > 100 µM (inactive); in the test with SF-295, 38.9 µM (inactive); in the test with HCC 2998, > 100 µM (inactive); in the test with A498 it was > 100 µM (inactive); in the test with SF-268 it was > 100 µM (inactive); in the test with NCI-H522 it was > 100 µM (inactive). In addition, the GI50 is 88.3 µM (inactive) in the test with MOLT-4; > 100 µM (inactive) with KM12; 65.5 µM (inactive) in the test on MDA-MB-435; 35.6 µM (inactive) in the test on CCRF-CEM; > 100 µM (inactive) in the test on CAKI-1; 76.6 µM (inactive) in the test with UACC-62. The GI50 in the test with OVCAR-5 was > 100 µM (inactive); in the test on NCI-H226 it was 94 µM (inactive); with SR it was 68.1 µM (inactive); in the test on 786-0 it was > 100 µM (inactive); in the test on Malme-3M, 86.3 µM (inactive).

As to `CNC1=C(C)C(=O)C(O)=C([C@H](C)CCC=C(C)C)C1=O`, the GI50 was 27.7 µM (inactive) with U-251; 11.4 µM (inactive) in the test on SF-295; 31.8 µM (inactive) in the test on HCC 2998; 19.5 µM (inactive) in the test with A498; 19.1 µM (inactive) in the test with SF-268; 3.77 µM (inactive) in the test on NCI-H522. The GI50 was 6.18 µM (inactive) in the test with MOLT-4; 17 µM (inactive) with KM12; 29.6 µM (inactive) in the test with MDA-MB-435; 3.95 µM (inactive) in the test on CCRF-CEM; 11.6 µM (inactive) in the test on CAKI-1; 13 µM (inactive) in the test with UACC-62. The GI50 in the test with OVCAR-5 was 77.8 µM (inactive); in the test with NCI-H226, 22.1 µM (inactive); in the test on SR it was 7.38 µM (inactive); with 786-0, 24.9 µM (inactive); in the test on UO-31, 9.82 µM (inactive); in the test on Malme-3M, 16 µM (inactive).

Turning to `Cc1sc2nc(-c3ccc([N+](=O)[O-])cc3)c(/C=N/N=C(N)N)n2c1C`, the GI50 is 0.179 µM (active) with U-251; 1.16 µM (inactive) in the test on SF-295; 0.175 µM (active) in the test on HCC 2998; 1.87 µM (inactive) with A498; 1.65 µM (inactive) in the test with SF-268; 1.32 µM (inactive) in the test with NCI-H522. The GI50 was 0.83 µM (active) in the test on MOLT-4; 0.301 µM (active) in the test on KM12; 0.979 µM (active) with MDA-MB-435; 0.206 µM (active) in the test on CCRF-CEM; 2.07 µM (inactive) in the test on CAKI-1; 1.73 µM (inactive) in the test with UACC-62. For the same compound, the GI50 with OVCAR-5 is 1.36 µM (inactive); in the test on NCI-H226, 1.84 µM (inactive); in the test with SR it was 0.217 µM (active); in the test on 786-0, 0.221 µM (active); with UO-31 it was 1.62 µM (inactive); in the test with Malme-3M, 1.17 µM (inactive).

With `CCCCCCCCCCCCCCCCOc1ccc(/C=C/C2=[N+](CCCl)CCO2)cc1`, the GI50 is 32.9 µM (inactive) with U-251; 55.8 µM (inactive) in the test with SF-295; > 100 µM (inactive) in the test with HCC 2998; 73.1 µM (inactive) in the test on A498; > 100 µM (inactive) in the test with NCI-H522; > 100 µM (inactive) with MOLT-4. Further, the GI50 in the test on KM12, in the test on MDA-MB-435, in the test with CCRF-CEM, with CAKI-1, in the test with UACC-62 and in the test on OVCAR-5 was > 100 µM (inactive) each time. Also, the GI50 was > 100 µM (inactive) in the test with NCI-H226; 30.1 µM (inactive) in the test on SR; 30.8 µM (inactive) in the test on 786-0; > 100 µM (inactive) with UO-31; > 100 µM (inactive) in the test on Malme-3M.

Consider `CCOC(=O)/C(=C\c1c[nH]c2ccccc12)P(=O)(OCC)OCC`, for which the GI50 is 33.8 µM (inactive) with U-251; 39.9 µM (inactive) with SF-295; 65.3 µM (inactive) with HCC 2998; 28.8 µM (inactive) in the test on A498; 29.5 µM (inactive) with SF-268; 26.8 µM (inactive) with NCI-H522. For the same compound, the GI50 with MOLT-4 is 55.1 µM (inactive); in the test with KM12 it was 33.2 µM (inactive); with MDA-MB-435 it was 40.9 µM (inactive); in the test on CCRF-CEM, 16.7 µM (inactive); in the test on CAKI-1 it was > 100 µM (inactive); in the test with UACC-62, 32.9 µM (inactive). Moreover, the GI50 in the test with OVCAR-5 was 26.2 µM (inactive); in the test with NCI-H226, 28.3 µM (inactive); in the test on SR it was 25.1 µM (inactive); with 786-0, 31.3 µM (inactive); in the test on Malme-3M, 18.9 µM (inactive).
